Reference: PubChem BioAssay AID1963840 (Molecular Pharmacology Branch, DTP, NCI, 2024)

System: 695427-040-R-J1-PDC complex spheroid viability
Experiment: Anticancer human tumor 695427-040-R-J1-PDC patient-derived colon adenocarcinoma cell line growth inhibition [POLQ]
Conditions: for IC50: curve of first compound; for viability, T/C: stronger effect = lower value; active means viability on the fitted dose curve at most 10% of control; inactive means the rest
Method in brief: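 Complex spheroid viability model combining PDC tumour cells with endothelial (HUVEC) and MSC stromal cells. Novobiocin, ART-558 or RP6685 were tested singly and in combination with standard and investigational anticancer drugs. Each was titrated in half-log steps from near clinical Cmax, or from 10 microM where Cmax was unknown.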

[1] = second compound 0.0316 µM, first compound 0.0316 µM
[2] = second compound 0.0316 µM, first compound 0.1 µM
[3] = second compound 0.0316 µM, first compound 0.316 µM
[4] = second compound 0.0316 µM, first compound 1 µM
[5] = second compound 0.0316 µM, first compound 3.16 µM
[6] = second compound 0.0316 µM, first compound 10 µM
[7] = second compound 0.1 µM, first compound 0.0316 µM
[8] = second compound 0.1 µM, first compound 0.1 µM
[9] = second compound 0.1 µM, first compound 0.316 µM
[10] = second compound 0.1 µM, first compound 1 µM
[11] = second compound 0.1 µM, first compound 3.16 µM
[12] = second compound 0.1 µM, first compound 10 µM
[13] = second compound 0.316 µM, first compound 0.0316 µM
[14] = second compound 0.316 µM, first compound 0.1 µM
[15] = second compound 0.316 µM, first compound 0.316 µM
[16] = second compound 0.316 µM, first compound 1 µM
[17] = second compound 0.316 µM, first compound 3.16 µM
[18] = second compound 0.316 µM, first compound 10 µM
[19] = second compound 1 µM, first compound 0.0316 µM
[20] = second compound 1 µM, first compound 0.1 µM
[21] = second compound 1 µM, first compound 0.316 µM
[22] = second compound 1 µM, first compound 1 µM
[23] = second compound 1 µM, first compound 3.16 µM
[24] = second compound 1 µM, first compound 10 µM
[25] = second compound 3.16 µM, first compound 0.0316 µM
[26] = second compound 3.16 µM, first compound 0.1 µM
[27] = second compound 3.16 µM, first compound 0.316 µM
[28] = second compound 3.16 µM, first compound 1 µM
[29] = second compound 3.16 µM, first compound 3.16 µM
[30] = second compound 3.16 µM, first compound 10 µM
[31] = second compound 10 µM, first compound 0.0316 µM
[32] = second compound 10 µM, first compound 0.1 µM
[33] = second compound 10 µM, first compound 0.316 µM
[34] = second compound 10 µM, first compound 1 µM
[35] = second compound 10 µM, first compound 3.16 µM
[36] = second compound 10 µM, first compound 10 µM
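Further: spheroids exposed to compounds for seven days.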
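Wherever viability, T/C is given: 100% = DMSO vehicle control viability.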

CC1COCCN1c1cc(C2(S(C)(=N)=O)CC2)nc(-c2ccnc3[nH]ccc23)n1 (stereo unspecified) + COC1C(OC(N)=O)C(O)C(Oc2ccc3c(O)c(NC(=O)c4ccc(O)c(CC=C(C)C)c4)c(=O)oc3c2C)OC1(C)C
> 10 µM: IC50 (second compound 0.0316 µM) | IC50 (second compound 0.1 µM) | IC50 (second compound 0.316 µM) | IC50 (second compound 1 µM) | IC50 (second compound 3.16 µM) | IC50 (second compound 10 µM)
inactive: viability, T/C [1] 96.3% | viability, T/C [2] 101% | viability, T/C [3] 101% | viability, T/C [4] 101% | viability, T/C [5] 93.9% | viability, T/C [6] 86% | viability, T/C [7] 124% | viability, T/C [8] 89.4% | viability, T/C [9] 104% | viability, T/C [10] 96.8% | viability, T/C [11] 97.6% | viability, T/C [12] 80.8% | viability, T/C [13] 104% | viability, T/C [14] 89.7% | viability, T/C [15] 101% | viability, T/C [16] 101% | viability, T/C [17] 101% | viability, T/C [18] 81.7% | viability, T/C [19] 104% | viability, T/C [20] 105% | viability, T/C [21] 102% | viability, T/C [22] 99.3% | viability, T/C [23] 107% | viability, T/C [24] 86.5% | viability, T/C [25] 94.1% | viability, T/C [26] 90.7% | viability, T/C [27] 99.7% | viability, T/C [28] 97.1% | viability, T/C [29] 107% | viability, T/C [30] 85.9% | viability, T/C [31] 104% | viability, T/C [32] 102% | viability, T/C [33] 102% | viability, T/C [34] 97.7% | viability, T/C [35] 102% | viability, T/C [36] 79%

Nc1ccn(C2OC(CO)C(O)C2(F)F)c(=O)n1 (stereo unspecified) + Nc1ccc(C#CCN(C(=O)Cc2ncc(C(F)(F)F)cc2C(F)(F)F)c2ccc(F)cc2)nn1
> 10 µM: IC50 (second compound 0.0316 µM) | IC50 (second compound 0.1 µM) | IC50 (second compound 0.316 µM) | IC50 (second compound 1 µM) | IC50 (second compound 3.16 µM) | IC50 (second compound 10 µM)
inactive: viability, T/C [1] 103% | viability, T/C [2] 92.8% | viability, T/C [3] 92.1% | viability, T/C [4] 91.3% | viability, T/C [5] 81.8% | viability, T/C [6] 66.6% | viability, T/C [7] 98% | viability, T/C [8] 96.1% | viability, T/C [9] 90.8% | viability, T/C [10] 81.3% | viability, T/C [11] 80.4% | viability, T/C [12] 62.2% | viability, T/C [13] 106% | viability, T/C [14] 102% | viability, T/C [15] 75.9% | viability, T/C [16] 78% | viability, T/C [17] 79% | viability, T/C [18] 68.1% | viability, T/C [19] 104% | viability, T/C [20] 90.9% | viability, T/C [21] 89.4% | viability, T/C [22] 78.8% | viability, T/C [23] 80.7% | viability, T/C [24] 63.7% | viability, T/C [25] 102% | viability, T/C [26] 93.3% | viability, T/C [27] 85.1% | viability, T/C [28] 84.8% | viability, T/C [29] 83.7% | viability, T/C [30] 65.8% | viability, T/C [31] 92.5% | viability, T/C [32] 86.7% | viability, T/C [33] 82.3% | viability, T/C [34] 84.6% | viability, T/C [35] 89.2% | viability, T/C [36] 73.9%

Cn1ncnc1[C@H]1c2n[nH]c(=O)c3cc(F)cc(c23)N[C@@H]1c1ccc(F)cc1 + Nc1ccc(C#CCN(C(=O)Cc2ncc(C(F)(F)F)cc2C(F)(F)F)c2ccc(F)cc2)nn1
inactive: viability, T/C (second compound 0.0316 µM, first compound 0.000316 µM) 109% | viability, T/C (second compound 0.0316 µM, first compound 0.001 µM) 103% | viability, T/C (second compound 0.0316 µM, first compound 0.00316 µM) 109% | viability, T/C (second compound 0.0316 µM, first compound 0.01 µM) 103% | viability, T/C [1] 111% | viability, T/C [2] 95.1% | viability, T/C (second compound 0.1 µM, first compound 0.000316 µM) 100% | viability, T/C (second compound 0.1 µM, first compound 0.001 µM) 122% | viability, T/C (second compound 0.1 µM, first compound 0.00316 µM) 109% | viability, T/C (second compound 0.1 µM, first compound 0.01 µM) 104% | viability, T/C [7] 108% | viability, T/C [8] 88.4% | viability, T/C (second compound 0.316 µM, first compound 0.000316 µM) 110% | viability, T/C (second compound 0.316 µM, first compound 0.001 µM) 109% | viability, T/C (second compound 0.316 µM, first compound 0.00316 µM) 88.5% | viability, T/C (second compound 0.316 µM, first compound 0.01 µM) 102% | viability, T/C [13] 110% | viability, T/C [14] 105% | viability, T/C (second compound 1 µM, first compound 0.000316 µM) 107% | viability, T/C (second compound 1 µM, first compound 0.001 µM) 102% | viability, T/C (second compound 1 µM, first compound 0.00316 µM) 104% | viability, T/C (second compound 1 µM, first compound 0.01 µM) 99.7% | viability, T/C [19] 119% | viability, T/C [20] 92.8% | viability, T/C (second compound 3.16 µM, first compound 0.000316 µM) 105% | viability, T/C (second compound 3.16 µM, first compound 0.001 µM) 100% | viability, T/C (second compound 3.16 µM, first compound 0.00316 µM) 104% | viability, T/C (second compound 3.16 µM, first compound 0.01 µM) 103% | viability, T/C [25] 108% | viability, T/C [26] 89% | viability, T/C (second compound 10 µM, first compound 0.000316 µM) 102% | viability, T/C (second compound 10 µM, first compound 0.001 µM) 90.9% | viability, T/C (second compound 10 µM, first compound 0.00316 µM) 99% | viability, T/C (second compound 10 µM, first compound 0.01 µM) 88.1% | viability, T/C [31] 102% | viability, T/C [32] 86.1%
> 0.1 µM: IC50 (second compound 0.0316 µM) | IC50 (second compound 0.1 µM) | IC50 (second compound 0.316 µM) | IC50 (second compound 1 µM) | IC50 (second compound 3.16 µM) | IC50 (second compound 10 µM)
